Legend:
[1] = tested on: wild oat; assay: Test C pre-/postemergence test; assay type: in vivo, Avena fatua; details: Preemergence
How it was run: (§1)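 Test chemicals were formulated with surfactant in a non-phytotoxic solvent and sprayed both on freshly planted seeds (preemergence) and on 1- to 4-leaf plants of 2–18 cm (postemergence). Flooded-paddy pots received compound directly into 3 cm of standing water, maintained for the test.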

[2] = tested on: giant foxtail; assay: Test C pre-/postemergence test; assay type: in vivo, Setaria faberii; details: Preemergence
How it was run: as §1

[3] = tested on: soybean; assay: Test C pre-/postemergence test; assay type: in vivo, Glycine max; details: Preemergence
How it was run: as §1

[4] = tested on: Italian ryegrass; assay: Test C pre-/postemergence test; assay type: in vivo, Lolium multiflorum; details: Preemergence
How it was run: as §1

[5] = tested on: johnsongrass; assay: Test C pre-/postemergence test; assay type: in vivo, Sorghum halepense; details: Preemergence
How it was run: as §1

[6] = tested on: cocklebur; assay: Test C pre-/postemergence test; assay type: in vivo, Xanthium strumarium
How it was run: as §1

[7] = tested on: duck salad; assay: Test C flooded paddy test; assay type: in vivo, Heteranthera limosa; details: Flood
How it was run: (§2)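 Greenhouse pots flooded to 3 cm above soil at time of treatment received compound via the water, which stayed at that level.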

[8] = tested on: velvetleaf; assay: Test C pre-/postemergence test; assay type: in vivo, Abutilon theophrasti; details: Preemergence
How it was run: as §1

[9] = tested on: velvetleaf; assay: Test A pre-/postemergence greenhouse test; assay type: in vivo, Abutilon theophrasti; details: for Velvetleaf plant response rating: 0 to 100 scale
How it was run: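 Two application timings were run side by side in the greenhouse. Before emergence, compound went onto the soil surface of loam–sand pots as a directed spray; after emergence, plants at 2–10 cm and the one- to two-leaf stage were treated. Visual injury versus controls was rated at approximately day ten.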

[10] = tested on: morningglory; assay: Test C pre-/postemergence test; assay type: in vivo, Ipomoea coccinea; details: 62 g ai/ha, Preemergence; scale 0 to 100
How it was run: as §1

[11] = tested on: catchweed bedstraw; assay: Test C pre-/postemergence test; assay type: in vivo, Galium aparine; details: Preemergence
How it was run: as §1

[12] = tested on: barnyardgrass; assay: Test C flooded paddy test; assay type: in vivo, Echinochloa crus-galli; details: Flood
How it was run: as §2

[13] = tested on: downy brome; assay: Test C pre-/postemergence test; assay type: in vivo, Bromus tectorum
How it was run: as §1

[14] = tested on: blackgrass; assay: Test C pre-/postemergence test; assay type: in vivo, Alopecurus myosuroides
How it was run: as §1

[15] = tested on: green foxtail; assay: Test C pre-/postemergence test; assay type: in vivo, Setaria viridis; details: Preemergence
How it was run: as §1

[16] = tested on: woolly cupgrass; assay: Test C pre-/postemergence test; assay type: in vivo, Eriochloa villosa; details: Preemergence
How it was run: as §1

[17] = tested on: corn; assay: Test C pre-/postemergence test; assay type: in vivo, Zea mays
How it was run: as §1

[18] = 31 g ai/ha, scale 0 to 100 (0 no effect, 100 complete control)
[19] = 62 g ai/ha, Preemergence, scale 0 to 100
[20] = Preemergence, 31 g ai/ha, scale 0 to 100 (0 no effect, 100 complete control)
[21] = preemergence, 125 g ai/ha, scale 0 (no effect) to 100 (complete control)
[22] = 62 g ai/ha, scale 0 to 100, 0 no effect, 100 complete control, 13 to 15 days
[23] = 125 g ai/ha, scale 0 to 100, 0 no effect, 100 complete control, 13 to 15 days
[24] = 250 g ai/ha, scale 0 to 100 (0 no effect, 100 complete control)

CC(c1c(C(F)(F)F)nn(C)c1OC(F)F)S(=O)(=O)c1cc(C(C)(C)C)cc[n+]1[O-] (racemic) [Compound 26]
Oat, Wild plant response rating ([1]; 62 g ai/ha, scale 0 to 100): 60 | Plant response rating, Oat, Wild [1, 18]: 0 | Foxtail, Giant plant response rating ([2]; 62 g ai/ha, scale 0 to 100): 70 | Plant response rating, Foxtail, Giant [2, 18]: 40 | Plant response rating (0 to 100), Foxtail, Giant ([2]; 250 g ai/ha): 75 | Soybean plant response rating ([3]; 62 g ai/ha, scale 0 to 100): 0 | Plant response rating, Soybean [3, 18]: 0 | Ryegrass, Italian plant response rating ([4]; 62 g ai/ha, scale 0 to 100): 65 | Plant response rating, Ryegrass, Italian [4, 18]: 0 | Johnsongrass plant response rating ([5]; 62 g ai/ha, scale 0 to 100): 85 | Plant response rating (0 to 100), Johnsongrass ([5]; 250 g ai/ha): 100 | Cocklebur plant response rating [6, 19]: 0 | Plant response rating, Cocklebur [6, 20]: 0 | Plant response rating (0 to 100), Cocklebur ([6]; Preemergence, 250 g ai/ha): 50 | Cocklebur plant response rating [6, 21]: 0 | Plant response rating, Ducksalad [7, 18]: 40 | Plant response rating, Ducksalad [7, 22]: 65 | Plant response rating, Ducksalad [7, 23]: 65 | Plant response rating, Ducksalad [7, 24]: 90 | Velvetleaf plant response rating ([8]; 62 g ai/ha, scale 0 to 100): 80 | Plant response rating, Velvetleaf [8, 18]: 30 | Velvetleaf plant response rating ([9]; Postemergence, 125 g ai/ha, 0 is no effect, 100 is complete control): 0 | Velvetleaf plant response rating ([9]; Postemergence, 500 g ai/ha, 0 is no effect, 100 is complete control): 0 | Velvetleaf plant response rating ([9]; Preemergence, 125 g ai/ha, 0 no effect, 100 complete control): 0 | Plant response rating, Velvetleaf ([9]; Preemergence, 500 g ai/ha, 0 to 100 scale where 0 is no effect and 100 is complete control): 70 | Morningglory plant response rating [10]: 80 | Galium plant response rating ([11]; 62 g ai/ha, scale 0 to 100): 85 | Plant response rating, Galium [11, 18]: 50 | Plant response rating (0 to 100), Galium ([11]; 250 g ai/ha): 100 | Plant response rating, Barnyardgrass [12, 18]: 0 | Plant response rating, Barnyardgrass [12, 22]: 0 | Plant response rating, Barnyardgrass [12, 23]: 20 | Plant response rating, Barnyardgrass [12, 24]: 80 | Bromegrass, Downy plant response rating [13, 19]: 45 | Plant response rating, Bromegrass, Downy [13, 20]: 0 | Plant response rating (0 to 100), Bromegrass, Downy ([13]; Preemergence, 250 g ai/ha): 60 | Bromegrass, Downy plant response rating [13, 21]: 45 | Blackgrass plant response rating [14, 19]: 100 | Plant response rating, Blackgrass [14, 20]: 80 | Plant response rating (0 to 100), Blackgrass ([14]; Preemergence, 250 g ai/ha): 100 | Blackgrass plant response rating [14, 21]: 100 | Foxtail, Green plant response rating ([15]; 62 g ai/ha, scale 0 to 100): 85 | Plant response rating, Foxtail, Green [15, 18]: 10 | Plant response rating (0 to 100), Foxtail, Green ([15]; 250 g ai/ha): 100 | Cupgrass, Woolly plant response rating ([16]; 62 g ai/ha, scale 0 to 100): 40 | Plant response rating, Cupgrass, Woolly [16, 18]: 40 | Plant response rating (0 to 100), Cupgrass, Woolly ([16]; 250 g ai/ha): 98 | Corn plant response rating [17, 19]: 0 | Plant response rating, Corn [17, 20]: 0 | Plant response rating (0 to 100), Corn ([17]; Preemergence, 250 g ai/ha): 95 | Corn plant response rating [17, 21]: 70
